Measurements reported in the supplement of paper PMC10307832.

Columns and labels:
Test in all cases: relative viability (nuclei count vs DMSO), 5 days (fraction); higher = more cells survive
[1] = compound: CN1CCN(c2ccc3nc(-c4c(N)c5c(F)cccc5[nH]c4=O)[nH]c3c2)CC1 [Dovitinib] + O=C(c1cc(Cc2n[nH]c(=O)c3ccccc23)ccc1F)N1CCN(C(=O)C2CC2)CC1 [Olaparib] (partner 8 µM)
Outline: (§1)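 Lung cancer cell lines, seeded in 1536-well plates, were treated the following day by pin tool with a single drug or with five library-drug doses (not always all listed) in √10 steps on top of a fixed anchor-drug dose. Cells were fixed and nuclei stained in one step after 5 days, and nuclei were counted. Relative viability is the nuclei count for treated wells divided by that for vehicle wells, reported as medians of duplicate plates.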

[2] = compound: CN1CCN(c2ccc3nc(-c4c(N)c5c(F)cccc5[nH]c4=O)[nH]c3c2)CC1 [Dovitinib] + CC(=O)c1c(C)c2cnc(Nc3ccc(N4CCNCC4)cn3)nc2n(C2CCCC2)c1=O [Palbociclib] (partner 0.5 µM)
Outline: as §1

[3] = compound: CN1CCN(c2ccc3nc(-c4c(N)c5c(F)cccc5[nH]c4=O)[nH]c3c2)CC1 [Dovitinib] + Cc1nc(NC(=O)N2CCC[C@H]2C(N)=O)sc1-c1ccnc(C(C)(C)C(F)(F)F)c1 [Alpelisib] (partner 2 µM)
Outline: as §1

[4] = compound: CN1CCN(c2ccc3nc(-c4c(N)c5c(F)cccc5[nH]c4=O)[nH]c3c2)CC1 [Dovitinib] + Nc1nc2[nH]cc(CCc3ccc(C(=O)N[C@@H](CCC(=O)O)C(=O)O)cc3)c2c(=O)[nH]1 [Pemetrexed] (partner 0.2 µM)
Outline: as §1

Cell Line	relative viability ([1]; first compound 0.02 µM)	relative viability ([1]; first compound 0.06325 µM)	relative viability ([1]; first compound 0.2 µM)	relative viability ([1]; first compound 0.6325 µM)	relative viability ([1]; first compound 2 µM)	relative viability ([2]; first compound 0.02 µM)	relative viability ([2]; first compound 0.06325 µM)	relative viability ([2]; first compound 0.2 µM)	relative viability ([2]; first compound 0.6325 µM)	relative viability ([2]; first compound 2 µM)	relative viability ([3]; first compound 0.02 µM)	relative viability ([3]; first compound 0.06325 µM)	relative viability ([3]; first compound 0.2 µM)	relative viability ([3]; first compound 0.6325 µM)	relative viability ([3]; first compound 2 µM)	relative viability ([4]; first compound 0.02 µM)	relative viability ([4]; first compound 0.06325 µM)	relative viability ([4]; first compound 0.2 µM)	relative viability ([4]; first compound 0.6325 µM)	relative viability ([4]; first compound 2 µM)
EKVX	0.897	0.723	0.862	0.831	0.904	0.394	0.378	0.511	0.412	0.364	0.889	0.848	0.901	0.942	0.946	0.434	0.385	0.42	0.46	0.372
EMC-BAC-2	0.569	0.513	0.5	0.486	0.504	0.551	0.493	0.539	0.502	0.518	0.784	0.772	0.701	0.687	0.736	0.555	0.442	0.487	0.445	0.459
EPLC-272H	0.815	0.893	0.793	0.681	0.57	0.314	0.331	0.314	0.336	0.328	0.9	0.815	0.97	0.946	0.888	0.408	0.35	0.274	0.398	0.372
H3255	0.549	0.553	0.547	0.542	0.548	0.301	0.291	0.298	0.325	0.281	0.785	0.655	0.735	0.8	0.937	0.609	0.579	0.568	0.64	0.599
HARA	0.973	0.921	1.07	0.775	0.885	0.29	0.234	0.311	0.254	0.258	0.791	0.908	0.778	0.853	0.705	0.256	0.254	0.233	0.241	0.258
HCC-15	0.687	0.703	0.71	0.696	0.726	0.738	0.708	0.717	0.694	0.708	0.916	0.868	0.915	0.848	0.939	0.225	0.228	0.213	0.231	0.216
HCC-44	0.976	0.977	0.949	0.996	0.92	0.93	0.994	0.969	0.985	0.95	0.721	0.783	0.835	0.856	0.747	0.617	0.659	0.685	0.687	0.586
HCC-78	0.887	0.665	1.05	0.777	0.888	0.437	0.468	0.511	0.54	0.522	0.422		0.384	0.364	0.316	0.914	0.934	0.931	0.889	0.865
